Our source for the IC50 values is patent US20050004126A1 (priority 2001, published 2005).

pIC50: −log10 of the molar value. Where two headings read alike, the source gives them in different places. Where only a bound is given, the exact number is not on record here.

The target of assay [1] is T1, MMP-1FL (full-length interstitial collagenase) (Homo sapiens, UniProt P03956).
T1 sequence (P03956 100-469): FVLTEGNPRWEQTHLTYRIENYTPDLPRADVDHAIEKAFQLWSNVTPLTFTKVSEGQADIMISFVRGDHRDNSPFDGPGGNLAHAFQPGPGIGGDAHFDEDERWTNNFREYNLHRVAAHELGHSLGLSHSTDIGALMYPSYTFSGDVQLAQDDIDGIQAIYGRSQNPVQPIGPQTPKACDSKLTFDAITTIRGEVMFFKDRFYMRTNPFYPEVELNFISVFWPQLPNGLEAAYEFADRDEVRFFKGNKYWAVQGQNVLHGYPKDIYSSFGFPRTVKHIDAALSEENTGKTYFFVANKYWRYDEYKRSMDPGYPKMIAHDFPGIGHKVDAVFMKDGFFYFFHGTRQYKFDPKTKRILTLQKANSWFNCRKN
The assay is described as follows: Thiopeptolide hydrolysis assay, MMP-1. It is filed as biochemical. The settings on record: read-out: MMP01 IC50.
Procedure: (§1) They measure the amount by which a test compound reduces the hydrolysis of a thiopeptolide substrate caused by a matrix metalloproteinase enzyme.
Thiopeptolide substrates show virtually no decomposition or hydrolysis in the absence of a matrix metalloproteinase enzyme. A typical thiopeptolide substrate commonly utilized for assays is Ac-Pro-Leu-Gly-thioester-Leu-Leu-Gly-OEt. A 100 μL assay mixture will contain 50 mM of 2-morpholinoethane sulfonic acid monohydrate (MES, pH 6.0) 10 mM CaCl2, 100 μM thiopeptolide substrate, and 1 mM 5,5′-dithio-bis-(2-nitro-benzoic acid) (DTNB). […] The change in absorbance at 405 nm is monitored on a Thermo Max microplate reader (moleucular Devices, Menlo Park, Calif.) at room temperature (22° C.). […] Assays are carried out with and without matrix metalloproteinase inhibitor compounds, and the amount of hydrolysis is compared for a determination of inhibitory activity of the test compounds.

In assay [2] the target is MMP-3CD (catalytic domain of stromelysin) (Homo sapiens, UniProt P08254). The assay is described as follows: Thiopeptolide hydrolysis assay, MMP-3.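 As to all read-outs here: inhibition of thiopeptolide substrate (100 µM) cleavage by the MMP-3 catalytic domain, detected with DTNB at pH 6.0 with CaCl2, hydrolysis compared against runs lacking inhibitor.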 It is filed as biochemical. The conditions noted are these: for pIC50: read-out: MMP03 IC50.
MMP-3CD (catalytic domain of stromelysin), sequence (P08254 100-272 limits assumed): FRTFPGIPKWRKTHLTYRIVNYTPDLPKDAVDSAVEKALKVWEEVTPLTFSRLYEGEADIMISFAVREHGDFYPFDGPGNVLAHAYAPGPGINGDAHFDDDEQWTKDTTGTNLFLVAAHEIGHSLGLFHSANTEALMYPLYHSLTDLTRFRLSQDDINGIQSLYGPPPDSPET
Procedure: as §1
Thiopeptolide substrates show virtually no decomposition or hydrolysis in the absence of a matrix metalloproteinase enzyme. A typical thiopeptolide substrate commonly utilized for assays is Ac-Pro-Leu-Gly-thioester-Leu-Leu-Gly-OEt. A 100 μL assay mixture will contain 50 mM of 2-morpholinoethane sulfonic acid monohydrate (MES, pH 6.0) 10 mM CaCl2, 100 μM thiopeptolide substrate, and 1 mM 5,5′-dithio-bis-(2-nitro-benzoic acid) (DTNB). […] Assays are carried out with and without matrix metalloproteinase inhibitor compounds, and the amount of hydrolysis is compared for a determination of inhibitory activity of the test compounds.
The target of assay [3] is MMP-13CD (catalytic domain of collagenase 3) (Homo sapiens, UniProt P45452). The assay can be described thus: Thiopeptolide hydrolysis assay, MMP-13.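 Also: inhibition of enzymatic thiopeptolide substrate cleavage (100 µM) in pH 6.0 MES buffer with CaCl2 and DTNB, comparing hydrolysis with versus without inhibitor.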

As for `Cc1c(=O)n(Cc2ccccc2)c(=O)n2cc(C(=O)NCc3ccc(OC(F)(F)F)cc3)sc12`, the results for the pIC50 in assay [1] (Table 1b) and in assay [2] (Table 1b) were under 4.52 and under 4.00, respectively. Besides, the IC50 (in general, the concentration at which inhibition is half-maximal) in assay [3] (MMP13 IC50 (μM), Table 1b) was found to be 0.815 µM.

Consider `CC#CCn1c(=O)c(C)c2sc(C(=O)NCc3ccc(F)cc3)cn2c1=O`, for which the pIC50 (commonly the negative decadic logarithm of the IC50, by convention in mol/L) is under 4.00 in assay [1] (Table 1b) and under 4.52 in assay [2] (Table 1b). In assay [3] (MMP13 IC50 (μM), Table 1b), this compound displayed an IC50 of 0.315 µM.

Regarding `O=C(NCc1ccccc1)c1cn2c(=O)n(Cc3ccc(Cl)c(Cl)c3)c(=O)cc2s1`, the pIC50 in assay [1] (Table 1b) and in assay [2] (Table 1b) was under 4.52 throughout. In assay [3] (MMP13 IC50 (μM), Table 1b), the IC50 is 0.293 µM.

For `O=C(NCc1ccc(Cl)c(Cl)c1)c1cn2c(=O)n(Cc3ccc(Cl)cc3)c(=O)cc2s1`, the pIC50 in assay [1] (Table 1b) was under 4.52; in assay [2] (Table 1b), under 4.00. In assay [3] (MMP13 IC50 (μM), Table 1b), this compound returned an IC50 of 4.3 µM.

In the case of `O=C(NCc1ccccc1)c1cn2c(=O)n(Cc3ccc(Cl)cc3)c(=O)cc2s1`, the pIC50 is under 4.52 in assay [1] (Table 1b) and 4.37 in assay [2] (Table 1b). The compound further had an IC50 in assay [3] (MMP13 IC50 (μM), Table 1b) of 0.415 µM.

For `Cc1c(=O)n(Cc2ccc(C#N)cc2)c(=O)n2cc(C(=O)NCc3ccc(F)cc3)sc12`, the pIC50 in assay [1] (Table 1b) was under 4.00; in assay [2] (Table 1b), 4.60. The same compound gave an IC50 in assay [3] (MMP13 IC50 (μM), Table 1b) of 0.023 µM.

On to `Cc1c(=O)n(Cc2ccc3cc(F)ccc3n2)c(=O)n2cc(C(=O)NCc3ccc(F)cc3)sc12`, for which the pIC50 is under 4.52 in assay [1] (Table 1b) and 4.74 in assay [2] (Table 1b). The same compound came in with an IC50 in assay [3] (MMP13 IC50 (μM), Table 1b) of 0.086 µM.

Take `Cc1c(=O)n(Cc2ccccc2)c(=O)n2cc(C(=O)NCc3cccnc3)sc12`: the values for the pIC50 in assay [1] (Table 1b) and in assay [2] (Table 1b) were under 4.00 and under 4.52, respectively. The IC50 in assay [3] (MMP13 IC50 (μM), Table 1b) is 0.225 µM.

In the case of `Cc1c(=O)n(Cc2ccc3oc(=O)ccc3c2)c(=O)n2cc(C(=O)NCc3ccc(F)cc3)sc12`, the pIC50 in assay [1] (Table 1b) and in assay [2] (Table 1b) was under 4.52 each time. For the same compound, the IC50 in assay [3] (MMP13 IC50 (μM), Table 1b) amounted to 0.012 µM.

For the compound `Cc1c(=O)n(Cc2ccc(C(=O)N3CCOCC3)cc2)c(=O)n2cc(C(=O)NCc3ccc(F)cc3)sc12`, the pIC50 in assay [1] (Table 1b) and in assay [2] (Table 1b) was under 4.52 throughout. The compound also had an IC50 in assay [3] (MMP13 IC50 (μM), Table 1b) of 0.011 µM.

As to `COc1ccc(CNC(=O)c2cccc(C(=O)NCc3ccc4c(c3)OCO4)c2)cc1`, the pIC50 in assay [1] (Table II) was under 4.00. For the same compound, the IC50 in assay [2] (MMP03 IC50 (nM), Table II) is over 100000 nM; in assay [3] (MMP13 IC50 (nM), Table II) it was 1.65 µM.

For `O=C(NCc1ccccc1)c1cccc(C(=O)NCc2ccc3c(c2)OCO3)c1`, the pIC50 in assay [1] (Table II) and in assay [2] (Table II) was under 4.00 throughout. The compound further gave an IC50 in assay [3] (MMP13 IC50 (nM), Table II) of 1.9 µM.

Consider `O=C(NCc1ccc2c(c1)OCO2)c1cccc(C(=O)NCc2ccco2)c1`, for which the negative-log IC50 (pIC50) in assay [1] (Table II) and in assay [2] (Table II) was under 4.00 each time. Further, it took 3.4 µM to reach half-maximal inhibition in assay [3] (MMP13 IC50 (nM), Table II) (IC50).

Turning to `COc1cccc(CNC(=O)c2cccc(C(=O)NCc3cccc(N)c3)c2)c1`, the pIC50 in assay [1] (Table II) and in assay [2] (Table II) was under 4.00 in each case. In assay [3] (MMP13 IC50 (nM), Table II), the IC50 turned out to be 0.935 µM.

`COc1cccc(CNC(=O)c2cccc(C(=O)NCc3ccc(C)cc3)c2)c1`: the pIC50 in assay [1] (Table II) is under 4.00; in assay [2] (Table II) it was 4.12. The compound further yielded a half-inhibitory concentration (IC50) in assay [3] (MMP13 IC50 (nM), Table II) of 0.385 µM.

Turning to `COc1cccc(CNC(=O)c2cccc(C(=O)NCc3cccnc3)c2)c1`, the pIC50 in assay [1] (Table II) and in assay [2] (Table II) was under 4.00 throughout. In assay [3] (MMP13 IC50 (nM), Table II), this compound had an IC50 of 7.93 µM.

Consider `COc1cccc(CNC(=O)c2cccc(C(=O)NCc3ccncc3)c2)c1`, for which the pIC50 in assay [1] (Table II) and in assay [2] (Table II) was under 4.00 throughout. This compound yielded an IC50 in assay [3] (MMP13 IC50 (nM), Table II) of 1.4 µM.

`COc1cccc(CNC(=O)c2cccc(C(=O)NCc3ccc(Cl)c(Cl)c3)c2)c1`: the pIC50 is under 4.00 in assay [1] (Table II) and 4.17 in assay [2] (Table II). This compound also displayed an IC50 in assay [3] (MMP13 IC50 (nM), Table II) of 0.555 µM.

As to `COc1cccc(CNC(=O)c2cccc(C(=O)NCc3ccc(Cl)cc3)c2)c1`, the pIC50 in assay [1] (Table II) and in assay [2] (Table II) was under 4.00 each time. Also, in assay [3] (MMP13 IC50 (nM), Table II), half-maximal inhibition (IC50) was put at 0.503 µM.

For `COc1ccc(CNC(=O)c2cccc(C(=O)NCc3cccc(OC)c3)c2)cc1`, the pIC50 in assay [1] (Table II) was under 4.00; in assay [2] (Table II), 4.40. The same compound returned an IC50 in assay [3] (MMP13 IC50 (nM), Table II) of 0.415 µM.

For the compound `O=C(NCc1cccnc1)c1cccc(C(=O)NCc2ccc3c(c2)OCO3)c1`, the pIC50 in assay [1] (Table II) and in assay [2] (Table II) was under 4.00 each time. For the same compound, the IC50 in assay [3] (MMP13 IC50 (nM), Table II) was found to be 1.5 µM.

With `CCOc1ccc(C(=O)NCc2ccc3c(c2)OCO3)cc1C(=O)NCc1ccc2c(c1)OCO2`, the pIC50 in assay [1] (Table II) is 4.29; in assay [2] (Table II), 4.70. The IC50 in assay [3] (MMP13 IC50 (nM), Table II) came to 0.493 µM.

As for `CCCOc1ccc(C(=O)NCc2ccc3c(c2)OCO3)cc1C(=O)NCc1ccc2c(c1)OCO2`, the results for the pIC50 in assay [1] (Table II) and in assay [2] (Table II) were under 4.00 and 4.57, respectively. Besides, in assay [3] (MMP13 IC50 (nM), Table II), it took 1.45 µM to reach half-maximal inhibition (IC50).

`COc1ccc(C(=O)NCc2ccc3nsnc3c2)cc1C(=O)NCc1ccc2nsnc2c1`: the pIC50 was 4.52 in assay [1] (Table II) and 4.68 in assay [2] (Table II). The compound further yielded an IC50 in assay [3] (MMP13 IC50 (nM), Table II) of 0.155 µM.
